Results taken from patent US20240261411A1, “PERMEATION ENHANCERS FOR GASTROINTESTINAL SYNTHETIC EPITHELIAL LININGS” (Syntis Bio, Inc., priority 2023, published 2024).

What was measured:
[1] = Franz cell permeability of semaglutide; conditions: Franz cells, porcine duodenal tissue
Description: Franz cells were used for testing different permeation enhancers on ex vivo tissue from the small intestine, such as porcine duodenal tissue (or colon tissue where indicated). Water pumps were attached to the Franz cell rack to maintain each Franz cell at 37° C. The racks were loaded with Franz cells, and each cell was filled with 5 mL of phosphate buffered saline. Tissue was cut into ˜3.2×3.2 cm squares and any large clumps of mucus or excrement was removed before mounting onto the Franz cells. Next, gastrointestinal synthetic epithelial lining (GSEL) solutions were prepared by first weighing out dopamine HCl, polydopamine, and a permeation enhancer into a vial. […] Samples from the receiving compartment was periodically collected from 0 to 24 hours and the concentration of API was measured. […]
The same experiment was carried out, except without using a permeation enhancer in the GSEL solution. The amount of API detected in the receiving compartment for GSELS with permeation enhancer was compared to the amount of API detected in the receiving compartment for GSELs without permeation enhancer at each time point to determine the increase in permeation provided by the permeation enhancer.

[2] = pig model, semaglutide pharmacokinetics after endoscopic placement or IV; design: species or system Yorkshire pigs; conditions: in vivo, 1.5 mg/kg
From the text: Yorkshire pigs, weighing 40-80 kg each over 7 months and approximately 4-9 months of age were used. Following routine preoperative fast, pigs were anesthetized, intubated, and maintained on isoflurane anesthesia during the procedure. An indwelling marginal ear vein catheter was be inserted for blood collection, which occurred over 1-7 days. Dry GSEL powders containing permeation enhancers and semaglutide were solubilized with Tris buffer immediately before administration. An endoscope guided catheter was placed into the proximal small intestines, where the GSEL suspensions were injected. Blood was taken periodically from the ear vein catheter and the blood was immediately centrifuged down in serum collection tubes. Samples were analyzed via ELISA and LC-MS. Pigs were woken up after 6 hours and monitored until full recovery.
For the following experiment, a ratio of formulation components as presented in Table E8 was used (e.g., 2×GSEL, 6.4 mg/kg GCA, 6.4 mg/kg NHCO, with semaglutide at a final ratio of 20:2.35 permeation enhancer to semaglutide).

SMILES | semaglutide permeability, comparison in words [1] | absorption, in words [2]
O=C([O-])CCCCCCCNC(=O)c1ccccc1O.[Na+] [SNAC, sodium N-[8-(2-hydroxybenzoyl)amino]caprylate] | did not promote permeation of semaglutide as much | –
CC[C@H](C)[C@H](NC(=O)[C@H](Cc1ccccc1)NC(=O)[C@H](CCC(=O)O)NC(=O)[C@H](CCCCNC(=O)COCCOCCNC(=O)COCCOCCNC(=O)CC[C@H](NC(=O)CCCCCCCCCCCCCCCCC(=O)O)C(=O)O)NC(=O)[C@H](C)NC(=O)[C@H](C)NC(=O)[C@H](CCC(N)=O)NC(=O)CNC(=O)[C@H](CCC(=O)O)NC(=O)[C@H](CC(C)C)NC(=O)[C@H](Cc1ccc(O)cc1)NC(=O)[C@H](CO)NC(=O)[C@H](CO)NC(=O)[C@@H](NC(=O)[C@H](CC(=O)O)NC(=O)[C@H](CO)NC(=O)[C@@H](NC(=O)[C@H](Cc1ccccc1)NC(=O)[C@@H](NC(=O)CNC(=O)[C@H](CCC(=O)O)NC(=O)C(C)(C)NC(=O)[C@@H](N)Cc1cnc[nH]1)[C@@H](C)O)[C@@H](C)O)C(C)C)C(=O)N[C@@H](C)C(=O)N[C@@H](Cc1c[nH]c2ccccc12)C(=O)N[C@@H](CC(C)C)C(=O)N[C@H](C(=O)N[C@@H](CCCNC(=N)N)C(=O)NCC(=O)N[C@@H](CCCNC(=N)N)C(=O)NCC(=O)O)C(C)C [Control (semaglutide only), semaglutide] | – | zero absorption
